In patent US20260076975A1, “TPK AGONIST AND METHOD FOR USING SAME TO TREAT NEURODEGENERATIVE DISEASES” (SHANGHAI RAISING PHARMACEUTICAL CO., LTD., priority 2022, published 2026):
pEC50: −log10 of the molar value. Where two headings read alike, the source gives them in different places.

Target: TPK enzyme (Homo sapiens, UniProt Q9H3S4)
Test: TPK enzyme activity test (TDP formation from thiamine and ATP, HPLC detection)
Format: biochemical
Protocol: The purpose of this example was to test the promoting effect of compounds on TPK enzyme activity and evaluate the in vitro activity of the compounds based on EC50 and Emax.
1.1) The constant-temperature water-bath shaker was pre-heated half an hour in advance at a pre-heating temperature of 37° C.
1.2) The stock solution of the compound to be tested was taken out, allowed to thaw at room temperature, and then diluted to the required concentration.
1.3) The required reagents were placed on ice to thaw.
2.1) For each reaction system, TPK enzyme solution, Tris-HCl buffer solution, and ATP solution were added. The concentration of ATP used was 1-500 mM. The above three solutions were formulated into a homogeneous mixture.
2.2) The mixture of the above three solutions was dispensed into centrifuge tubes. Then, the compound at the required concentration was added to each centrifuge tube. Finally, thiamine solution (1-100 μM) was added. After the addition of the above system was completed, the centrifuge tubes were tightly capped, inserted into a floating board, and placed in the constant-temperature water-bath shaker that had been pre-heated to 37° C. for incubation for 0.5-2.0 hours.
2.3) After the incubation was completed, perchloric acid stop solution was added and mixed well. Samples were taken into 1.5 mL centrifuge tubes and stored at −20° C.
3.1) The samples stored at −20° C. were taken out, thawed at room temperature, and then subjected to derivatization treatment. The samples were placed in centrifuge tubes, a potassium ferricyanide derivatization reagent was added, and finally phosphoric acid stop solution was added to stop the reaction.
3.2) The derivatized samples were placed in sample vials for liquid chromatography analysis, and the contents of TDP/thiamine were detected by high performance liquid chromatography. TKP enzyme activity=TDP (nM)/mg protein/min.
The effects of the compounds of the present invention on TPK enzyme activity at different concentrations were determined according to the above procedures.

[1] = promoting effect on TPK enzyme activity, calculated with the effect of DMSO on TPK enzyme activity as 100%, read-out: Emax
[2] = promoting effect on TPK enzyme activity

Sequence of TPK enzyme (Q9H3S4 whole entry): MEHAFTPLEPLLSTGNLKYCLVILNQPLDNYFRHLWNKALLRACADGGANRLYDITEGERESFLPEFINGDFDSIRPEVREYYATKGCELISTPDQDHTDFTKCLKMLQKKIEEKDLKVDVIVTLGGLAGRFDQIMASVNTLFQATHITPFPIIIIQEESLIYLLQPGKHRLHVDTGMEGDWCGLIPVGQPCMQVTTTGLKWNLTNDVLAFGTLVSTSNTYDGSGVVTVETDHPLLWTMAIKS

| SMILES | Emax [1] | pEC50 [2] | Emax |
| --- | --- | --- | --- |
| CCC1Oc2cc(S(=O)(=O)N(C)CC(=O)NCc3ccc(Cl)cc3)c(C)cc2NC1=O (centres unmarked) [Compound 143] | 122% |  |  |
| CN(CC(=O)NCc1ccc(F)cc1)S(=O)(=O)c1ccc2[nH]c(=O)ccc2c1 [Compound 144] | 121% |  |  |
| CN(CC(=O)NCc1ccc(Cl)cc1)S(=O)(=O)c1ccc2[nH]c(=O)ccc2c1 [Compound 145] | 120% |  |  |
| O=C(CN1CCN(c2ccc(F)cc2)CC1)NC(=O)NCCc1c[nH]c2ccc(F)cc12 [Compound 146] | 175% | 5.87 |  |
| O=C(CCn1cnc2sccc2c1=O)N1CCN(c2cccc(C(F)(F)F)c2)CC1 [Compound 147] | 147% |  |  |
| Cc1cc(=O)oc2cc(OCC(=O)N3CCN(c4cccc(C(F)(F)F)c4)CC3)ccc12 [Compound 148] | 165% | 5.91 |  |
| Cc1ccc(Cl)cc1N1CCN(CCCNC(=O)C2COc3ccccc3C2)CC1 (centres unmarked) [Compound 149] | 182% |  |  |
| COc1cccc2cc(C(=O)N3CCN(c4cccc(C(F)(F)F)c4)CC3)c(=O)oc12 [Compound 150] | 212% | 6.86 |  |
| CCCc1cc(=O)n2nc(N3CCC(C(=O)NCc4ccc(CC)cc4)CC3)sc2n1 [Compound 151] | 155% | 5.47 |  |
| CC(CNC(=O)COc1ccc2c(c1)CCC(=O)N2)N1CCCC1 (centres unmarked) [Compound 152] | 161% | 5.02 |  |
| CC(C)C(CNC(=O)COc1ccc2c(c1)CCC(=O)N2)N1CCc2ccccc2C1 (centres unmarked) [Compound 153] | 201% | 5.10 |  |
| O=C1COc2ccc(C(=O)COC(=O)C=Cc3ccc(S(=O)(=O)N4CCCCCC4)cc3)cc2N1 [Compound 154] | 132% |  |  |
| O=C1COc2ccc(C(=O)CSCCSCC(=O)c3ccc4c(c3)NC(=O)CO4)cc2N1 [Compound 155] | 125% |  |  |
| CC(NC(=O)Nc1nncs1)c1ccc2c(c1)CCC(=O)N2 (centres unmarked) [Compound 156] | 120% |  |  |
| O=C1CCc2cc(S(=O)(=O)N3CCN(c4cccc(C(F)(F)F)c4)CC3)ccc2N1 [Compound 157] | 155% | 5.58 |  |
| CC(=O)N1CCCc2cc(C(=O)N3CCN(c4cccc(C(F)(F)F)c4)CC3)ccc21 [Compound 165, 1-(6-(4-(3-(trifluoromethyl)phenyl)piperazine-1-carbonyl)-3,4-dihydroquinolin-1(2H)-yl)ethan-1-one] |  | 5.01 | 148% |
| CC(=O)N1CCCc2cc(C(=O)N3CCN(c4cccc(Cl)c4Cl)CC3)ccc21 [Compound 166, 1-(6-(4-(2,3-dichlorophenyl)piperazine-1-carbonyl)-3,4-dihydroquinolin-1(2H)-yl)ethan-1-one] |  | 5.37 | 156% |
| CC(=O)N1CCCc2cc(C(=O)N3CCC(Cc4ccc(F)cc4)CC3)ccc21 [Compound 168, 1-(6-(4-(4-fluorobenzyl)piperidine-1-carbonyl)-3,4-dihydroquinolin-1(2H)-yl)ethan-1-one] | 151% | 5.27 |  |
| COc1ccc(C(=O)NCCC(=O)N2CCN(c3cccc(Cl)c3Cl)CC2)cc1OC [Compound 169, N-(3-(4-(2,3-dichlorophenyl)piperazin-1-yl)-3-oxopropyl)-3,4-dimethoxybenzamide] |  | 5.14 | 148% |
| COc1ccc(C(=O)NCCCC(=O)N2CCN(c3cccc(Cl)c3Cl)CC2)cc1OC [Compound 170] |  | 5.36 | 156% |
| COc1ccc(C(=O)NCCCCC(=O)N2CCN(c3cccc(Cl)c3Cl)CC2)cc1OC [Compound 171, N-(5-(4-(2,3-dichlorophenyl)piperazin-1-yl)-5-oxopentyl)-3,4-dimethoxybenzamide] |  |  | 127% |
| COC(=O)c1cc(OC)c(OC)cc1C(=O)N1CCN(c2cccc(Cl)c2Cl)CC1 [Compound 173, methyl 2-(4-(2,3-dichlorophenyl)piperazine-1-carbonyl)-4,5-dimethoxybenzoate] |  |  | 132% |
| O=C(CCOCc1ccc(N2CCCCC2)nc1)NCCc1cccc2ccc(O)cc12 [Compound 178, N-(2-(7-hydroxynaphthalen-1-yl)ethyl)-3-((6-(piperidin-1-yl)pyridin-3-yl)methoxy)propanamide] |  |  | 120% |
